In patent US9981929B2, “Method for prevention of premature polymerization” (NITTO BELGIUM NV, priority 2015, dated 2018):

Legend:
[1] = Synthesis of SMA via transesterification in the presence of the inhibitors; settings: 500 ppm inhibitor
Protocol: SMA is prepared via transesterification in the presence of the indicated inhibitors. A two-neck flask, equipped with a Dean-Stark apparatus and a reflux condenser, is charged with three equivalents of methyl methacrylate, one equivalent of stearyl/palmityl alcohol and 500 ppm of inhibitor. Air is bubbled through the solution using a needle, septum and vacuum pump, set at 900 mbar.
The methyl methacrylate/methanol azeotrope is collected and at the end of the reaction any remaining methyl methacrylate is removed under reduced pressure at the rotavapor.

[2] = Kugelrohr distillation (purification) of SMA in the presence of the inhibitors; settings: 500 ppm inhibitor, 10 g SMA, kugelrohr 240 °C, about 0.2 mbar; visual viscosity increase
Protocol: The temperature of the kugelrohr is set to 240° C. The distillation starts when the vacuum reached about 0.2 mbar. Polymerization in the rotating pitch is evaluated by visually determining increased viscosity.
The inhibitors were added as such to the SMA prior to the distillation, no methanolic solution as described earlier is used.

[3] = end of reaction after removal of methanol and excess methyl methacrylate

With `CN(C)c1ccc2nc3ccc(=[N+](C)C)cc-3sc2c1` [MB, methylene blue] the “Properties end (color of the reaction mixture)” value [1, 3] was “brown liquid” and the “Properties start (color of the reaction mixture)” value ([1]; start of reaction) was “dark blue solution”.
With `CCCCCCCCCCCCCCCCS(=O)(=O)[O-].CN(C)c1ccc2nc3ccc(N(C)C)cc3[s+]c2c1.[Cl-].[Na+]` [Inhibitor I-2a] the Polymerization [2] was “no”, the “Properties end (color of the reaction mixture)” value [1, 3] was “brown liquid very” and the “Properties start (color of the reaction mixture)” value ([1]; start of reaction) was “dark blue solution”.
In the case of `COc1ccc(O)cc1` [MeHQ, 4-methoxyphenol], the “Properties end (color of the reaction mixture)” value [1, 3] is reported as “yellow liquid white”, the “Properties end (precipitate / solubility of catalyst/inhibitor)” value [1, 3] is reported as “precipitate (catalyst)” and the “Properties start (color of the reaction mixture)” value ([1]; start of reaction) is reported as “colorless solution”. For the same compound, the “Properties start (solubility of catalyst/inhibitor)” value ([1]; start of reaction) was “homogeneous”.
For `CCCCCCCCS(=O)(=O)[O-].CN(C)c1ccc2nc3ccc(N(C)C)cc3[s+]c2c1` [Inhibitor I-1, octanesulfonate salt of methylene blue], the Polymerization [2] was “no”.
With `CC(C)(C)c1cc(OCCCS(=O)(=O)[O-])c(C(C)(C)C)cc1O.CN(C)c1ccc2nc3ccc(N(C)C)cc3[s+]c2c1` [Inhibitor I-4] the Polymerization [2] was “no”, the “Properties end (color of the reaction mixture)” value [1, 3] was “purple liquid” and the “Properties start (color of the reaction mixture)” value ([1]; start of reaction) was “deep purple solution”.
With `CCCCCCCCS(=O)(=O)[O-].CN(C)c1ccc2nc3ccc(N(C)C)cc3[s+]c2c1.[Cl-].[Na+]` [Inhibitor I-1a] the Polymerization [2] was “no”.
